Read-outs that look alike come from different tables or passages of the source. Non-standard residues stand in square brackets, D forms with d. Residues, ends and D or L forms follow the SMILES beside them. Ala(5-hexenyl) = C=CCCCCC[C@H](N)C(=O)O; Aib = CC(C)(N)C(=O)O
Columns and labels:
human HDAC1 = target: T1, human HDAC1 (Homo sapiens, UniProt Q13547); assay: HDAC-inhibiting activity, coumarin-labeled acetylated histone peptide assay; format: biochemical; conditions: human HDAC1 from transfected 293T cells; 37° C., 30 minutes
T1 construct: made in house; host or cells: 293T cells (transient transfection, anti-FLAG immunoprecipitation, FLAG peptide elution)
Procedure: (§1) In carrying out HDAC-inhibiting activity measurements, HDAC solutions were prepared in the following manner. In each 100-mm dish, there were sowed 1×10^7 293T cells and, after 24 hours, they were transfected with a vector (5 μg) expressing human HDAC1 or HDAC4 or murine HDAC6 using the LipofectAmine 2000 reagent (Invitrogen). The human HDAC1 expression vector used was pcDNA3-HD1 (Yang, W. M., Yao, Y. L., Sun, J. M., Davie, J. R. & Seto, E. (1997) J. Biol. Chem. 272, 28001-28007), the human HDAC4 expression vector used was pcDNA3-HD4 (Fischle, W., Emiliani, S., Hendzel, M. J., Nagase, T., Nomura, N., Voelter, W. & Verdin, E. (1999) J. Biol. Chem. 274, 11713-11720), and the murine HDAC6 expression vector used was pcDNA3-mHDA2/HDAC6 (Verdel, A. & Khochbin, S. (1999) J. Biol. Chem. 274, 2440-2445).
(§2) After 24 hours of incubation, cells were recovered, washed with PBS, suspended in lysis buffer (50 mM Tris-HCl (pH 7.5), 120 mM NaCl, 5 mM EDTA, 0.5% Nonidet P-40), and sonicated. The supernatant was collected by centrifugation and then deprived of nonspecific proteins using Protein A/G plus agarose beads (Santa Cruz Biotechnologies, Inc.). Thereafter, anti-FLAG M2 antibody (Sigma-Aldrich Inc.) was added, and the reaction was allowed to proceed at 4° C. for 2 hours.
(§3) To this were added agarose beads, the reaction was allowed to proceed at 4° C. for 3 hours, and the agarose beads were washed three times with lysis buffer and then once with HD buffer (20 mM Tris-HCl (pH 8.0), 150 mM NaCl, 10% glycerol). The protein bound to the agarose beads was recovered by 1 hour of incubation with FLAG peptide (40 μg) (Sigma-Aldrich Inc.) in HD buffer (200 μl) at 4° C., and the liquid recovered was used, as a reactant solution, in the HDAC-inhibiting activity measurement described below.
(§4) HDAC-inhibiting activity evaluation in each in vitro system was made as follows. Each test compound was dissolved in DMSO, a stock solution with a concentration of 10 mM was thus prepared and this was used as an inhibitor stock solution. The assay was carried out by incubating the HDAC solution and a coumarin-labeled acetylated histone peptide solution in the presence of the test compound at 37° C. for 30 minutes (reaction volume 20 μl). To the reaction mixture was added 30 μl of trypsin, and the aminomethylcoumarin released by the enzymatic reaction was assayed using a fluorescent plate reader. In a negative control assay, no inhibitor was added to the reaction system and the same procedure was carried out.

murine HDAC6 = target: T2, murine HDAC6 (Mus musculus, UniProt Q9Z2V5); assay: as above; format: biochemical; conditions: murine HDAC6 from transfected 293T cells; 37° C., 30 minutes
T2 construct: made in house; host or cells: 293T cells (transient transfection, anti-FLAG immunoprecipitation, FLAG peptide elution)
T2 sequence (Q9Z2V5 1-1149): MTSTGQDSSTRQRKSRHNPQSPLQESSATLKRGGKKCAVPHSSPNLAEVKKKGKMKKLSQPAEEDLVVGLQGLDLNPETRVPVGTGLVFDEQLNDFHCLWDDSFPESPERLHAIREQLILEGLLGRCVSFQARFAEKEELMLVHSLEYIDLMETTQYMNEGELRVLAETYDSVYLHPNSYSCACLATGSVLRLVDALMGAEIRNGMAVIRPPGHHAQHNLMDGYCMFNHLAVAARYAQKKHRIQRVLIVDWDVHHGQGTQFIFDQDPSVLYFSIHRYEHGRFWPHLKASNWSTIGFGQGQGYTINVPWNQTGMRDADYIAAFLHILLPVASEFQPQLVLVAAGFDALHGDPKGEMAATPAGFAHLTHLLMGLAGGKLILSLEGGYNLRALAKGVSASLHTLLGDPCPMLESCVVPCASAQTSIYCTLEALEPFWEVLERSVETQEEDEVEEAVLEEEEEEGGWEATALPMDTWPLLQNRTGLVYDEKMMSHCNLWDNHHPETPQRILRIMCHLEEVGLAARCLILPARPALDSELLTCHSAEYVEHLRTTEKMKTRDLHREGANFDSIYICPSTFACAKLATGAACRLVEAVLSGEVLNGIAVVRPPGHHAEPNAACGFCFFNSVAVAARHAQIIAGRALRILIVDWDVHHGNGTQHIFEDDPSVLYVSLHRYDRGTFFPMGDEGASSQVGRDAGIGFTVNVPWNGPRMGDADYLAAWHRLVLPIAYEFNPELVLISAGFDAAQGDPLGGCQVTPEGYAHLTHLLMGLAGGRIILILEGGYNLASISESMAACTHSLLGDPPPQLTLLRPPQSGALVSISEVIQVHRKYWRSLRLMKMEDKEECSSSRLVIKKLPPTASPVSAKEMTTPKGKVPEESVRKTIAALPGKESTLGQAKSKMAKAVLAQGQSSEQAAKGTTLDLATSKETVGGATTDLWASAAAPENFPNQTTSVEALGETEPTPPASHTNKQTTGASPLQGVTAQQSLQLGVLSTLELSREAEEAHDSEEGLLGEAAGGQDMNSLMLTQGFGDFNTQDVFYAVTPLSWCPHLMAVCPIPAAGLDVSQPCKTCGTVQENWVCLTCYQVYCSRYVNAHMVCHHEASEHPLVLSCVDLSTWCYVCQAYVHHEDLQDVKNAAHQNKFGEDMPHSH
Procedure: as §1, §2, §3, §4

[1] = tested on: human wild type p21 promoter; assay: p21 promoter assay (luciferase) in MFLL-9 cells; format: cell-based; conditions: 20 hours, concentration giving 1000% luminescence relative to negative control (100%)
Procedure: As an HDAC-inhibiting activity in an […] system, the following measurement was carried out using the p21 promoter inducing activity as an index. MFLL-9 cells used in the experiment are cells stably retaining a fusion gene (Dr. B. Vogelstaein) from the human wild type p21 promoter and luciferase gene. They were cultured using phenol red-free DMEM supplemented with 10% FBS in a steam-saturated incubator at 37° C. in the presence of 5% carbon dioxide. These MFLL-9 cells were sowed onto a 96-well microplate at a cell density of 2×10^4 cells/well and, after 24 hours of cultivation in 99 μl, per well, of the medium mentioned above, each test compound solution was added, followed by 20 hours of incubation. […] In a negative control, the same procedure was carried out without adding any inhibitor to the reaction system.
Using Luciferase Assay Reagent (Promega), the intensity of the luminescence due to the product of the enzymatic reaction involving luciferase expressed within cells was measured.

human HDAC4 = target: T3, human HDAC4 (Homo sapiens, UniProt P56524); assay: HDAC-inhibiting activity, coumarin-labeled acetylated histone peptide assay; format: biochemical
T3 construct: made in house; host or cells: 293T cells (transient transfection, anti-FLAG immunoprecipitation, FLAG peptide elution)
Procedure: In carrying out HDAC-inhibiting activity measurements, HDAC solutions were prepared in the following manner. […] The human HDAC1 expression vector used was pcDNA3-HD1 (Yang, W. M., Yao, Y. L., Sun, […]. & Seto, E. (1997) J. Biol. Chem. 272, 28001-28007), the human HDAC4 expression vector used was pcDNA3-HD4 ([…]., Nagase, […]. Biol. Chem. 274, 11713-11720), and the murine HDAC6 expression vector used was pcDNA3-mHDA2/HDAC6 ([…]. Biol. Chem. 274, 2440-2445). After 24 hours of incubation, cells were recovered, washed with PBS, suspended in lysis buffer (50 mM Tris-HCl (pH 7.5), 120 mM NaCl, 5 mM EDTA, 0.5% Nonidet P-40), and sonicated. The supernatant was collected by centrifugation and then deprived of nonspecific proteins using Protein A/G plus agarose beads (Santa Cruz Biotechnologies, Inc.). Thereafter, anti-FLAG M2 antibody (Sigma-Aldrich Inc.) was added, and the reaction was allowed to proceed at 4° C. for 2 hours. To this were added agarose beads, the reaction was allowed to proceed at 4° C. for 3 hours, and the agarose beads were washed three times with lysis buffer and then once with HD buffer (20 mM Tris-HCl (pH 8.0), 150 mM NaCl, 10% glycerol). […] HDAC-inhibiting activity evaluation in each in vitro system was made as follows. Each test compound was dissolved in DMSO, a stock solution with a concentration of 10 mM was thus prepared and this was used as an inhibitor stock solution. The assay was carried out by incubating the HDAC solution and a coumarin-labeled acetylated histone peptide solution in the presence of the test compound at 37° C. for 30 minutes (reaction volume 20 μl). To the reaction mixture was added 30 μl of trypsin, and the aminomethylcoumarin released by the enzymatic reaction was assayed using a fluorescent plate reader. In a negative control assay, no inhibitor was added to the reaction system and the same procedure was carried out.

[2] = human HDAC4 from transfected 293T cells, 37° C., 30 minutes, read-out: HDAC-inhibiting activity IC50 HDAC4

T1 sequence (Q13547 whole entry): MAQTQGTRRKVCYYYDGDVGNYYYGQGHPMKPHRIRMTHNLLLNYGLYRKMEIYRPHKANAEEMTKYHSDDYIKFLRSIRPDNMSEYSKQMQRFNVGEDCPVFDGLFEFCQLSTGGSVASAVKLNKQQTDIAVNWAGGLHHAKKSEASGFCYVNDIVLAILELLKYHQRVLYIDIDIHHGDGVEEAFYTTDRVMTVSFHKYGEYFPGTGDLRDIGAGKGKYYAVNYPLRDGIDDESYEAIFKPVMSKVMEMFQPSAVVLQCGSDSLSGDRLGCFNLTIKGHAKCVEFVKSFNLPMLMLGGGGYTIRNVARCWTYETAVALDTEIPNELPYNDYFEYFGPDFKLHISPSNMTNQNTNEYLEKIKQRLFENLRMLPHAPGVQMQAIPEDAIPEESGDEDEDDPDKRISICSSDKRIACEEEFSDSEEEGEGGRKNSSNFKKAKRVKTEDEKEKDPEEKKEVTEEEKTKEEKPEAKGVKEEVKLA
T3 sequence (P56524 whole entry): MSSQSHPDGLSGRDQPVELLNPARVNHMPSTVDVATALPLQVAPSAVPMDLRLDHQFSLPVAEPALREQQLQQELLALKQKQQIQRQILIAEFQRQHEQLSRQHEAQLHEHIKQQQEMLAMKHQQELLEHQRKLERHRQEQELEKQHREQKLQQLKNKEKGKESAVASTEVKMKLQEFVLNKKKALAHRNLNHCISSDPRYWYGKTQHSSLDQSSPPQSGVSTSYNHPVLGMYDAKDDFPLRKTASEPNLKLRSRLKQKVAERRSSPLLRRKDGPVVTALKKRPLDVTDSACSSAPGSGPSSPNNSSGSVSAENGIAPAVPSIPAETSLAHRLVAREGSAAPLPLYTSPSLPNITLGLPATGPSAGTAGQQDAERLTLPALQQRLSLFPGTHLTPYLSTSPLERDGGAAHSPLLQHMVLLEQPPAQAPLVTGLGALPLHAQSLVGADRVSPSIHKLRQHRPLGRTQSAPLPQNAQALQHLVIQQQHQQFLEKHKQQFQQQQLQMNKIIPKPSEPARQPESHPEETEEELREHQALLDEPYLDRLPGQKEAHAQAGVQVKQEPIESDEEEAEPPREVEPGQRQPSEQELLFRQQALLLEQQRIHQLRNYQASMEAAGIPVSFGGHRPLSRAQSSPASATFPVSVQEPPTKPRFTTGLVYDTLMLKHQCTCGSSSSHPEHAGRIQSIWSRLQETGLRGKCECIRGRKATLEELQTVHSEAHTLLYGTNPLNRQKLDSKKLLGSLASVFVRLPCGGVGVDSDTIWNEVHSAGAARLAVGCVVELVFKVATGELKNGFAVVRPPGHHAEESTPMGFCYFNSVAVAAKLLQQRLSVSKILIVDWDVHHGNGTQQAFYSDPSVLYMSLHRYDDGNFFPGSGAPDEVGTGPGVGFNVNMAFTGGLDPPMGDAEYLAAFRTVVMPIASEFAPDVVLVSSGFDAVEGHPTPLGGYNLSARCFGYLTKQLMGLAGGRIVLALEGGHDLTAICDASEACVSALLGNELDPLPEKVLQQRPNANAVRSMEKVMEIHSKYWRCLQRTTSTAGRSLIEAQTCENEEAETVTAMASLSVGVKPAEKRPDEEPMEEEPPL
T3 sequence (O15379 whole entry, further chain): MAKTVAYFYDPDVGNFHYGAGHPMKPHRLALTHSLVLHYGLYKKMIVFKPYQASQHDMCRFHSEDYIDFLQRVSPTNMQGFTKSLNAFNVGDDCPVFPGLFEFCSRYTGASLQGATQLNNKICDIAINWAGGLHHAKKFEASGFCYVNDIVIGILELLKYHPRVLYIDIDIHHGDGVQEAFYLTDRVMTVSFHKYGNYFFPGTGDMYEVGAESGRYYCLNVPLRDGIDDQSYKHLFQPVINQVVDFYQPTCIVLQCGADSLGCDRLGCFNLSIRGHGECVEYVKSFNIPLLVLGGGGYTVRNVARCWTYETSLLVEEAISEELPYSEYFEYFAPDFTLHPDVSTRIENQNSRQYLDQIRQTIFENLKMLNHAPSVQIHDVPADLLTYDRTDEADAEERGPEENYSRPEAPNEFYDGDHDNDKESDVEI

SMILES | IC50 (human HDAC1) [nM] | IC50 (murine HDAC6) [nM] | p21 promoter activity EC1000 [1] [µM] | IC50 (human HDAC4; [2]) [nM] | IC50 (human HDAC4) [nM]
CCOCC(=O)CCCCC[C@@H]1NC(=O)[C@H]2CCCN2C(=O)[C@H](Cc2ccccc2)NC(=O)C(C)(C)NC1=O [Ky-10, cyclo(-L-Ae9(Emk)-Aib-L-Phe-D-Pro-)] | 21 | 8400 | 0.095 | 31 | 
CC1(C)NC(=O)[C@H](CCCCCC(=O)CBr)NC(=O)[C@H]2CCCN2C(=O)[C@H](Cc2ccccc2)NC1=O [Ky-12, cyclo(-L-Ae9(Bmk)-Aib-L-Phe-D-Pro-)] | 62 | 620 | 0.34 | 60 | 
CSCC(=O)CCCCC[C@@H]1NC(=O)[C@H]2CCCN2C(=O)[C@H](Cc2ccccc2)NC(=O)C(C)(C)NC1=O [Ky-13, cyclo(-L-Ae9(Mtmk)-Aib-L-Phe-D-Pro-)] | 110 | 40500 | 0.13 | 74 | 
CN(C)CC(=O)CCCCC[C@@H]1NC(=O)[C@H]2CCCN2C(=O)[C@H](Cc2ccccc2)NC(=O)C(C)(C)NC1=O [Ky-14, cyclo(-L-Ae9(Dmamk)-Aib-L-Phe-D-Pro-)] | 20000 | > 100000 | 2.4 | 17900 | 
CSCCCCC[C@@H]1NC(=O)[C@H]2CCCN2C(=O)[C@H](Cc2ccccc2)NC(=O)C(C)(C)NC1=O [Ky-15, cyclo(-L-Am7(methyl)-Aib-L-Phe-D-Pro-)] | > 100000 | > 100000 |  | > 100000 | 
CC1(C)NC(=O)[C@H](CCCCCSCc2ccccn2)NC(=O)[C@H]2CCCN2C(=O)[C@H](Cc2ccccc2)NC1=O [Ky-16, cyclo(-L-Am7(2-pyridylmethylthio ether)-Aib-L-Phe-D-Pro-)] | 23 | 58 | 0.20 | 11 | 
C=CCCCCC[C@@H]1NC(=O)[C@H]2CCCN2C(=O)[C@H](Cc2ccccc2)NC(=O)C(C)(C)NC1=O [Ky-17, cyclo(-L-Ae9-Aib-L-Phe-D-Pro-)] (cyclo([Aib]F[dP][Ala(5-hexenyl)])) | > 100000 | > 100000 | >250 |  | > 100000
CC(=O)SCC(=O)CCCCC[C@@H]1NC(=O)[C@H]2CCCN2C(=O)[C@H](Cc2ccccc2)NC(=O)C(C)(C)NC1=O [Ky-18, cyclo(-L-Ae9(Actmk)-Aib-L-Phe-D-Pro-)] | 110 | 4300 | 0.013 | 190 | 
CC1(C)NC(=O)C(CCCCC[S+]([O-])Cc2ccccn2)NC(=O)[C@H]2CCCN2C(=O)[C@H](Cc2ccccc2)NC1=O (stereo partly drawn) [Ky-25, cyclo(-L-Am7(2-pyridylmethyl,sulfoxide)-Aib-L-Phe-D-Pro-)] |  |  | 1.4 |  | 
CC1(C)NC(=O)[C@H](CCCSCC(=O)C(F)(F)F)NC(=O)[C@H]2CCCN2C(=O)[C@H](Cc2ccccc2)NC1=O [Ky-27, cyclo(-L-Am5(1,1,1-trifluoroacetonyl)-Aib-L-Phe-D-Pro-)] | > 100000 | > 100000 | >250 | > 100000 | 
CC1(C)NC(=O)[C@H](CCCCSCC(=O)C(F)(F)F)NC(=O)[C@H]2CCCN2C(=O)[C@H](Cc2ccccc2)NC1=O [Ky-28, cyclo(-L-Am6(1,1,1-trifluoroacetonyl)-Aib-L-Phe-D-Pro-)] | 83000 | > 100000 | 6.5 | 18400 | 
CC1(C)NC(=O)[C@H](CCCCCSCC(=O)C(F)(F)F)NC(=O)[C@H]2CCCN2C(=O)[C@H](Cc2ccccc2)NC1=O [Ky-29, cyclo(-L-Am7(1,1,1-trifluoroacetonyl)-Aib-L-Phe-D-Pro-)] |  |  | 0.028 | 360 | 
CC1(C)NC(=O)[C@H](CCCCCC(=O)COCC(F)(F)F)NC(=O)[C@H]2CCCN2C(=O)[C@H](Cc2ccccc2)NC1=O [Ky-60, cyclo(-L-Ae9(Tfemk)-Aib-L-Phe-D-Pro-)] | 370 | > 100000 | 0.85 | 460 | 
CC(=O)C[S+]([O-])CCCCCC1NC(=O)[C@H]2CCCN2C(=O)[C@H](Cc2ccccc2)NC(=O)C(C)(C)NC1=O (stereo partly drawn) [Ky-86, cyclo(-L-Am7(acetonyl,sulfoxide)-Aib-L-Phe-D-Pro-)] |  |  | 16.8 |  | 

Reference: patent US8158587B2, “Compound having histone deacetylase-inhibiting activity, and pharmaceutical composition comprising the compound as an active ingredient” (Kyushu Institute of Technology, priority 2006, dated 2012)
